System: HEK‐293 and PDL‐hTERT cells
Assay: MTT assay, relative metabolic activity after 3 days
Format: cell-based, human
Conditions: 3 days of treatment
Protocol: Methods and Experimental Procedures
(Alfa Aesar, Haverhill, USA, Cat# J66943 ) stocks were prepared in sterile -filtered 0.1 N HCl to a
maximum concentration of 50 mM. HCl was used as vehicle control, diluted in culture medium, and
Cell culture experiments were performed in HEK 293, A549 or PDL-hTERT cells1 cultured in DMEM high
glucose medium supplemented with 10% FCS and 2 mM glutamine ( all, Sigma-Aldrich, St. Louis, USA,
Cat# G7513) in 5% CO2 atmosphere at 37 °C in Heracell 150i incubators (Thermo Fisher Scientific,
Waltham, USA). The human periodontal ligament (PDL -hTERT) cell line was provided by Prof. Denitsa
Docheva. During standard cell passaging accutase (Sigma-Aldrich) or 2,5x trypsin/0.5% EDTA in PBS
(Capricorn Scientific, Ebsdorfergrund, Germany) was used for cell detachment. Cell dishes in various
sizes (10 cm, 15 cm) and flasks (T75, T175) were used for cultivation (Sarstedt, Nümbrecht, Germany,
purchased from Thermo Fisher Scientific, Waltham, USA, Cat# 130184, 130188.
HEK or PDL-hTERT cells (1,5 x 10^3 cells/well) were seeded into 96 -well plates and grown for 24 h. […]
removed by suction and the formed formazan crystals dissolved in 200 μL DMSO. The read-out was
performed with an Infinite M200 Pro microplate reader (Tecan, Männedorf, Switzerland) at 570 nm
and background was subtracted at 630 nm. The absorbance values were normalized to DMSO/0.1 N […]

For `O=C(O)c1cn(C2CC2)c2cc(N3CCNCC3)c(F)cc2c1=O` [Ciprofloxacin], which “approximate apparent IC50 (metabolic activity, MTT)” value is on record?
Its value is “well above the reported plasma concentrations”.
